These results are taken from patent US20260258397A1, “REAGENTS AND SYSTEMS FOR […]” (priority 2023, published 2026).

Values joined by “and” are separate entries in the source; they are usually repeats but may differ in a detail not shown here. Equal values may be shown once. Read-outs that look alike come from different tables or passages of the source.

Data set [1] can be described thus: Apparent Tm of HAB1 variants by thermal challenge and yeast surface display of PYR1^M. The class given is physicochemical. The conditions noted are these: YSD of PYR1^M, 500 nM ABA, 20 nM HAB1 variant. On the procedure: (§1) Except where noted, all proteins were expressed as N-terminal 6×His-MBP fusions primarily using the medium and method as described in ref. 17. For crystallographic structures, PYL2 and ΔN-HAB1^T+ were expressed in E. coli and purified as described previously 27. Assays for phosphatase activity and apparent Tm, measured via thermal challenge using yeast surface display were performed essentially as previously described 17.
Citrate-buffered saline was first prepared (CBS: 20 mM sodium citrate, 147 mM NaCl, 4.5 mM KCl). A portion of this CBS was removed and this aliquot was made into CBS^+++ by addition of freshly dissolved DTT to 1 mM, TCEP pH 8.0 to 1 mM, and MnCl2 to 10 mM followed by pH adjustment to 8.0 using 1 M sodium hydroxide. CBS^+++ was then sterile filtered and placed on ice. A further portion of CBS was removed and the above reagents were added in addition to bovine serum albumin at 0.2% w/v to produce CBSFF^+++, followed by adjustment of pH to 8.0 with 1 M sodium hydroxide and the solution was again sterile filtered and placed on ice. The remainder (and bulk) of the CBS was used to produce CBSF by addition of 0.1% w/v BSA with adjustment of pH to 8.0 using 1 M sodium hydroxide, and this solution was also sterile filtered, and 25 mL were retained at room temperature, with the bulk of the solution transferred to ice.
Determination of apparent Tm was performed using thermal melt. 130 AL of the ice-cold ammonium sulfate precipitates of HAB variants MBP-636 (“WT”), ΔN-HAB1^T+, MBP-724, MBP-725, and MBP-726 were pelleted in a microcentrifuge for 5 minutes at 17,000 g.
The supernatant was removed by pipette, discarded, and the pellet resuspended in an equivalent volume of ice-cold CBS^+++. Zeba™ spin desalting columns (Thermo) were equilibrated with CBS^+++ and the resuspended HABs were desalted and placed on ice. Each HAB was diluted to 400 nM concentration in CBS^+++ and aliquoted into PCR tubes at a 50 μL volume. These tubes were distributed into the blocks of a pair of Eppendorf Mastercycler X50i thermocyclers programmed for a thermal gradient as follows (in ° C.): (Machine #1 Gradient 30.0 to 60.0-30.0, 35.4, 39.3, 46.8, 50.6, 54.5, 60.0, Machine #2 Gradient 65.0 to 95.0-65.0, 70.4). The HAB aliquots were held at these temperatures for 30 minutes, followed by cooling to 4° C. in the thermocycler blocks. Once the aliquots had cooled, they were transferred to racks on ice and SO AL of CBSFF^+++ was added, such that each HAB was now at a concentration of 200 nM (10X) in CBSF^+++. The heat treated HAB aliquots were left on ice until the remainder of the labeling reactions were set up, about 1 hour. Labeling reactions were performed, measured, and analyzed as described previously (Steiner et al. 2020).

The nature of data set [2]: Phosphatase activity of 6xHis-MBP-ΔN-HAB1 variants using p-NPP. The class given is biochemical. The following applies: error 1 SEM.
Text: FIG. 8: Assessment of stabilized, inactivated 6×His-MBP-ΔN-HAB1 variants. Experiments were repeated on two separate days using independently generated batches of protein. Error bars indicate 1 SD of 3 measurements. Sets of mutations for each variant are noted in Table 7. […] Fluorescence here refers to streptavidin-phycoerythrin.
as §1

Another data set addresses T1, PYR1^M/ΔN-HAB1^T+ (Arabidopsis thaliana, UniProt O49686, H60P/N90S).
T1 construct: made in house; host or cells: E. coli
Kind of data set: PYR1 ELISA-like plate assay, immobilized PYR1^M with biotinylated ΔN-HAB1^T+. The following applies: for Amax [AU 450 nm]: global parameter. The class given is binding. On the procedure:
PYR1 was immobilized overnight in clear plates, blocked with KPL milk diluent in buffer CBS ^17 (CBSM). All binding reactions were performed using CBSM. Detection was performed via binding a streptavidin-HRP conjugate to biotinylated ΔN-HAB1^T+ followed by incubation with a commercial TMB reagent. Lower limits of detection (LODs) were determined by linear regression of the response data in the low linear range using the formula LOD=3σy/m, where m is the slope of the response line and σy is the standard error of the y intercept using data combined from biological replicates.
Unconjugated 6×His-MBP-PYR1 variants were immobilized to Microlon clear plates (655081) using 100 μL of CBS without pH modification, at a protein concentration of 100 μg mL^−1, or 1.57 AM at 4° C. overnight. Wells assigned as no PYR controls received only CBS. Plates were sealed using Microseal B adhesive sealers (BioRad MSB-1001). The following day, the solutions were decanted by flicking and all wells were washed twice with 300 μL of CBS. Blocking was performed using 300 μL of KPL milk diluent/concentrate (SeraCare 5140-0011) diluted 1:20 according to manufacturer's protocol, hereafter referred to as CBSM, incubated at room temperature for 2 hours, during which time all other components of the assays were diluted and assembled in 96 well PCR plates (Biorad HSP9601). Binding reactions were assembled from 88 μL of CBSM, 2 AL of 50× concentrate of ligand, dissolved in anhydrous ethanol for ABA, or anhydrous DMSO for all other compounds, with 10 μL of HAB to be added. Blocked plates were decanted by flicking and were washed twice with 300 μL of CBSM, followed by vigorous tamping on a pad of paper towels. The sole exception to the pre-assembly was biotinylated ΔN-HAB1^T+, where 130 AL of ammonium sulfate precipitate was pelleted at 17,000 g for 10 minutes, and the supernatant removed. The pellet was stored on ice until the blocked and washed plates were ready to receive the binding reactions. ΔN-HAB1^T+ was exchanged into CBSM with 1 mM DTT and 1 mM TCEP (CBSM++) using Zeba™ spin desalting columns (Thermo) were equilibrated with CBSM++. ΔN-HAB1^T+ was diluted to 10× the final binding reaction concentration and was immediately added to the pre-assembled assays in PCR plates, which were mixed by pipetting and transferred to the washed, blocked Microlon plates. Microlon plates were transferred to a plate shaker (Heidolph Titramax 1000) for 30 minutes at room temperature with shaking at 800 rpm. Plates were decanted by flicking and were washed three times with 300 μL of CBSM, followed by vigorous tamping on a pad of paper towels. Detection was enabled by addition of 100 μL of streptavidin-horseradish peroxidase (Thermo, SA10001), diluted 1:25,000 into CBSM, incubated in the above plate shaker for 10 minutes. This was decanted by flicking and washed three times with 300 AL of CBSM and by vigorous tamping on a pad of paper towels. Bound HAB was detected through addition of 50 μL 1-Step™ Ultra TMB-ELISA Substrate Solution (Thermo, 34028), incubated in the above plate shaker for 15 minutes (PYR1^M(N90S/H60P) with ABA, PYR1 ^WIN-M and PYR1^4F-M. in specificity assays to avoid overdevelopment of positive control), or for 30 minutes (PYR1^N90S/MANDI with mandipropamid, and PYR1^WIN-M and PYR1^4F-M under ligand titrations). TMB development was quenched by addition of 50 μL of 2M sulfuric acid and plates were read at 450 nm using a Biotek Synergy H1 Hybrid multimode plate reader. Estimates of Kd,eff were performed using Graphpad Prism 8.4.3 using the specific binding with Hill slope nonlinear regression function. Best fits for Kd1 and Kd2 were determined from global nonlinear fitting of the ELISA data using a custom script written in MatLab 2019b.

In data set [3] the test system is PYR1 mutant receptors (ligand-dependent binding to HAB1). The experiment in a line: Yeast two-hybrid screens and optimization for organophosphate sensors. The class given is cell-based, Arabidopsis. As for the experimental part: Surviving cells were collected and used in subsequent positive selections for ligand-responsive receptors on SD,-Leu,-Trp,-Ura media supplemented with a specific test chemical (100 μM) for responsiveness to any of the 10-member panel of organophosphate compounds: diazinon, pirimiphos-methyl, azinphos-ethyl, dimethoate, chlorfenvinphos, disulfoton, parathion-methyl, bromophos-methyl, malathion, and monocrotophos; all compounds were purchased form (Sigma-Aldrich). Isolated colonies were tested by regrowth on ligand-containing media and by dose response using X-gal staining and Sanger sequenced (see FIG. 13a-d).
Recombination-based mutagenesis of hit receptors was used to generate subsequent molecular diversity for selection-based optimization experiments, using the same general strategy across all scaffolds utilized. […] The resulting shuffled DNA fragments were cloned into pBD, transformed into E. coli, colonies collected, and plasmids extracted.

T1 sequence (O49686 whole entry H60P/N90S, other chains not shown): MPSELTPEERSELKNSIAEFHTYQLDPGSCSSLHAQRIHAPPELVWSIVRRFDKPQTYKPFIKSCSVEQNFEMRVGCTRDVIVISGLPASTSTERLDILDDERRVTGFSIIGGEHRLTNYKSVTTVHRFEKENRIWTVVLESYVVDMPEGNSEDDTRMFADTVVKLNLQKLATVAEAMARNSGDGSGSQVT

Regarding “724: stabilized dead 6 × His-MBP-ΔN-HAB1 variant with D243A instead of D204A [compound 724]”, the results for the “Tm, app (° C.)” value in data set [1] (Biorep 1) and in data set [1] (Biorep 2) were 54.1 °C and 44.8 °C, respectively. The “Phosphatase Activity (% of 636 at 50 mM p-NPP)” value in data set [2] (Biorep 1) was determined as 0.22 ± 0.005%; in data set [2] (Biorep 2), 0.01 ± 0.001%.
Taken in the same sequence, the figures for “725: 6 × His-MBP-ΔN-HAB1 (C186S, D199A, D204A, S209V, D287E, S292N, S342A, N377A, N439S) [compound 725]” were 50.7 °C, 45.5 °C, 0.25 ± 0.01% and 0.003 ± 0.004%.
On to `CC1=CC(=O)CC(C)(C)[C@@]1(O)/C=C/C(C)=C\C(=O)O` [ABA, abscisic acid], for which the Kd at PYR1^M/ΔN-HAB1^T+ (global nonlinear fit, PYR1^M/ABA/ΔN-HAB1^T+ system, Biorep 1, read-out: KD1) turned out to be 820 nM; on PYR1^M/ΔN-HAB1^T+ (global nonlinear fit, PYR1^M/ABA/ΔN-HAB1^T+ system, Biorep 2, read-out: KD1), 780 nM; at PYR1^M/ΔN-HAB1^T+ (global nonlinear fit, PYR1^M/ABA/ΔN-HAB1^T+ system, Biorep 3, read-out: KD1), 2090 nM; at PYR1^M/ΔN-HAB1^T+ (global nonlinear fit, KD2 = binding constant of HAB1 variant (ΔN-HAB1^T+) for PYR1^M with ABA, Biorep 1, read-out: KD2), 8 nM; on PYR1^M/ΔN-HAB1^T+ (global nonlinear fit, KD2 = binding constant of HAB1 variant (ΔN-HAB1^T+) for PYR1^M with ABA, Biorep 2, read-out: KD2), 4 nM; on PYR1^M/ΔN-HAB1^T+ (global nonlinear fit, KD2 = binding constant of HAB1 variant (ΔN-HAB1^T+) for PYR1^M with ABA, Biorep 3, read-out: KD2), 2 nM. Moreover, the Kd at PYR1^M/ΔN-HAB1^T+ (optimized ELISA-like system, PYR1^M, read-out: effective Kd) was 9.7 nM. For the same compound, the “Amax [AU 450 nm]” value at PYR1^M/ΔN-HAB1^T+ (PYR1^M/ABA/ΔN-HAB1^T+ system, Biorep 1) stood at 2 AU 450 nm; on PYR1^M/ΔN-HAB1^T+ (PYR1^M/ABA/ΔN-HAB1^T+ system, Biorep 2), 2.8 AU 450 nm; at PYR1^M/ΔN-HAB1^T+ (PYR1^M/ABA/ΔN-HAB1^T+ system, Biorep 3) it was 2 AU 450 nm. In addition, on PYR1^M/ΔN-HAB1^T+ (optimized ELISA-like system, PYR1^M), the “lower limit of detection (LOD)” value is 2 nM and 0.7 ng/mL.
As for `CCOP(=O)(OCC)O/C(=C\Cl)c1ccc(Cl)cc1Cl` [chlorfenvinphos], in data set [3] (after optimization), the “affinity of receptors obtained, but not lower” value worked out at 10 µM.
For the compound `CNC(=O)CSP(=S)(OC)OC` [dimethoate], the “affinity of receptors obtained, but not lower” value in data set [3] was found to be 10 µM.
Regarding “WT (636): 6 × His-MBP-ΔN-HAB1 (C186S, C274S)”, the entries for the “Tm, app (° C.)” value in data set [1] (Biorep 1) and in data set [1] (Biorep 2) were 44.8 °C and 38.1 °C, respectively. The entries for the “Phosphatase Activity (% of 636 at 50 mM p-NPP)” value in data set [2] (Biorep 1) and in data set [2] (Biorep 2) were 100 ± 0.4% and 100 ± 0.8%, respectively.
